Experimental data from ChEMBL document CHEMBL5357031, “Design and Synthesis of Cytotoxic Water-Soluble Rocaglaol Derivatives against HEL Cells by Inhibiting Fli-1” (J Nat Prod, 2024).
In brackets after ≈: the same amount, converted by molar mass. Where a name gives a salt, the structure may show the parent alone.

Tests used:
[1] = Solubility of compound in PBS at pH 7.4 at 2 mg measured for 24 hrs by HPLC-UV analysis; type: physicochemical
MDA-MB-231 [2] = experiment: cells; conditions: Homo sapiens, MDA-MB-231, 72 h
Description: (§1) Cytotoxicity against human MDA-MB-231 cells assessed as cell growth inhibition incubated for 72 hrs by MTT assay

HEL = experiment: Cytotoxicity against HEL cells assessed as cell growth inhibition incubated for 72 hrs by MTT assay; type: functional, cell-based, Homo sapiens
SW480 = experiment: Cytotoxicity against human SW480 cells assessed as cell growth inhibition incubated for 72 hrs by MTT assay; type: functional, cell-based; conditions: Homo sapiens, SW480, 72 h
MDA-MB-231 [3] = test system: MDA-MB-231
Description: as §1

SMILES | solubility at 24 h [1] | IC50 (MDA-MB-231 [2]) | IC50 (MDA-MB-231 [3]) | IC50 (HEL; Homo sapiens, HEL, 72 h) | IC50 (SW480) | IC50 (HEL; hel)
COc1cc(OC)c2c(c1)O[C@@]1(c3ccc(O)cc3)[C@H](c3ccccc3)C[C@@H](O)[C@@]21O (racemic) | 50 µg/mL (≈ 0.119 mM) | 350 nM |  | 180 nM | > 1000 nM | 
CCN(CC)CCCCCOc1ccc([C@@]23Oc4cc(OC)cc(OC)c4[C@]2(O)[C@H](O)C[C@H]3c2ccccc2)cc1 (racemic) |  | 130 nM |  | 260 nM | 690 nM | 
CCN(CC)Cc1cc([C@@]23Oc4cc(OC)cc(OC)c4[C@]2(O)[C@H](O)C[C@H]3c2ccccc2)ccc1O (racemic) |  | > 1000 nM |  | > 1000 nM | > 1000 nM | 
CCN(CC)CCOc1ccc([C@@]23Oc4cc(OC)cc(OC)c4[C@]2(O)[C@H](O)C[C@H]3c2ccccc2)cc1 (racemic) |  | > 1000 nM |  | > 1000 nM | > 1000 nM | 
COc1cc(OC)c2c(c1)O[C@@]1(c3ccc(OCCCCn4ccnc4)cc3)[C@H](c3ccccc3)C[C@@H](O)[C@@]21O (racemic) |  | 650 nM |  | 560 nM | > 1000 nM | 
COc1cc(OC)c2c(c1)O[C@@]1(c3ccc(OCCCCCN(C)C)cc3)[C@H](c3ccccc3)C[C@@H](O)[C@@]21O (racemic) |  | 370 nM |  | 170 nM | > 1000 nM | 
COc1cc(OC)c2c(c1)O[C@@]1(c3ccc(OCCCCN4CCCCC4)cc3)[C@H](c3ccccc3)C[C@@H](O)[C@@]21O (racemic) |  | 660 nM |  | 460 nM | > 1000 nM | 
COc1cc(OC)c2c(c1)O[C@@]1(c3ccc(OC)c(CN(C)C)c3)[C@H](c3ccccc3)C[C@@H](O)[C@@]21O (racemic) |  | > 1000 nM |  | 190 nM | > 1000 nM | 
COc1cc(OC)c2c(c1)O[C@@]1(c3ccc(OCCN4CCOCC4)cc3)[C@H](c3ccccc3)C[C@@H](O)[C@@]21O (racemic) |  | > 1000 nM |  | > 1000 nM | > 1000 nM | 
COc1cc(OC)c2c(c1)O[C@@]1(c3ccc(O)c(CN(C)C)c3)[C@H](c3ccccc3)C[C@@H](O)[C@@]21O (racemic) |  | > 1000 nM |  | > 1000 nM | > 1000 nM | 
COc1cc(OC)c2c(c1)O[C@@]1(c3ccc(O)c(CN4CCCC4)c3)[C@H](c3ccccc3)C[C@@H](O)[C@@]21O (racemic) |  | > 1000 nM |  | > 1000 nM | > 1000 nM | 
COc1cc(OC)c2c(c1)O[C@@]1(c3ccc(OCCCCCCCCn4cccc4)cc3)[C@H](c3ccccc3)C[C@@H](O)[C@@]21O (racemic) |  | > 1000 nM |  | > 1000 nM | > 1000 nM | 
COc1cc(OC)c2c(c1)O[C@@]1(c3ccc(OCCCCCCCCN4CCCCC4)cc3)[C@H](c3ccccc3)C[C@@H](O)[C@@]21O (racemic) |  | > 1000 nM |  | 240 nM | > 1000 nM | 
COc1cc(OC)c2c(c1)O[C@@]1(c3ccc(OCCCCCN4CCCCC4)cc3)[C@H](c3ccccc3)C[C@@H](O)[C@@]21O (racemic) |  | 190 nM |  | 180 nM | > 1000 nM | 
COc1cc(OC)c2c(c1)O[C@@]1(c3ccc(OCCCCN4CCN(C)CC4)cc3)[C@H](c3ccccc3)C[C@@H](O)[C@@]21O (racemic) |  | 220 nM |  | 380 nM | 650 nM | 
COc1cc(OC)c2c(c1)O[C@@]1(c3ccc(OCCN4CCCC4)cc3)[C@H](c3ccccc3)C[C@@H](O)[C@@]21O (racemic) |  | > 1000 nM |  | > 1000 nM | > 1000 nM | 
COc1cc(OC)c2c(c1)O[C@@]1(c3ccc(OCCN4CCN(C)CC4)cc3)[C@H](c3ccccc3)C[C@@H](O)[C@@]21O (racemic) |  | > 1000 nM |  | > 1000 nM | > 1000 nM | 
COc1cc(OC)c2c(c1)O[C@@]1(c3ccc(OCCCCCN4CCN(C)CC4)cc3)[C@H](c3ccccc3)C[C@@H](O)[C@@]21O (stereo in doubt; (+)-18o) |  |  |  |  |  | > 1000 nM
COc1cc(OC)c2c(c1)O[C@@]1(c3ccc(OCCCCCN4CCN(C)CC4)cc3)[C@H](c3ccccc3)C[C@@H](O)[C@@]21O (stereo in doubt; (-)-18o) |  |  |  |  |  | 120 nM
COc1cccc2c1C(=O)c1c(O)c3c(c(O)c1C2=O)C[C@@](O)(C(=O)CO)C[C@@H]3O[C@H]1C[C@H](N)[C@H](O)[C@H](C)O1 [DOXORUBICIN HYDROCHLORIDE] |  | 500 nM |  | 240 nM | 120 nM | 

The next lines start with results.

solubility at 24 h [1] | IC50 (MDA-MB-231 [2]) | IC50 (MDA-MB-231 [3]) | SMILES | IC50 (HEL; Homo sapiens, HEL, 72 h) | IC50 (SW480) | IC50 (HEL; hel)
 | > 1000 nM |  | COc1cc(OC)c2c(c1)O[C@@]1(c3ccc(OC)c(CN4CCOCC4)c3)[C@H](c3ccccc3)C[C@@H](O)[C@@]21O (racemic) | 140 nM | > 1000 nM | 
 | > 1000 nM |  | CCCCN(CCCC)Cc1cc([C@@]23Oc4cc(OC)cc(OC)c4[C@]2(O)[C@H](O)C[C@H]3c2ccccc2)ccc1OC (racemic) | > 1000 nM | > 1000 nM | 
 | 470 nM |  | CCN(CC)CCCCCCCCOc1ccc([C@@]23Oc4cc(OC)cc(OC)c4[C@]2(O)[C@H](O)C[C@H]3c2ccccc2)cc1 (racemic) | 390 nM | 650 nM | 
 | > 1000 nM |  | COc1cc(OC)c2c(c1)O[C@@]1(c3ccc(O)c(CN4CCCCC4)c3)[C@H](c3ccccc3)C[C@@H](O)[C@@]21O (racemic) | > 1000 nM | > 1000 nM | 
 | > 1000 nM |  | COc1cc(OC)c2c(c1)O[C@@]1(c3ccc(OCCn4cnc5ccccc54)cc3)[C@H](c3ccccc3)C[C@@H](O)[C@@]21O (racemic) | > 1000 nM | > 1000 nM | 
 | 450 nM |  | COc1cc(OC)c2c(c1)O[C@@]1(c3ccc(OCCCCCCCCN4CCN(C)CC4)cc3)[C@H](c3ccccc3)C[C@@H](O)[C@@]21O (racemic) | 460 nM | 690 nM | 
 | 580 nM |  | COc1cc(OC)c2c(c1)O[C@@]1(c3ccc(OCCCCN(C)C)cc3)[C@H](c3ccccc3)C[C@@H](O)[C@@]21O (racemic) | > 1000 nM | > 1000 nM | 
 | > 1000 nM |  | COc1cc(OC)c2c(c1)O[C@@]1(c3ccc(OCCn4ccnc4)cc3)[C@H](c3ccccc3)C[C@@H](O)[C@@]21O (racemic) | > 1000 nM | > 1000 nM | 
 | > 1000 nM |  | COc1cc(OC)c2c(c1)O[C@@]1(c3ccc(OC)c(CN4CCCC4)c3)[C@H](c3ccccc3)C[C@@H](O)[C@@]21O (racemic) | 670 nM | > 1000 nM | 
 | 320 nM |  | COc1cc(OC)c2c(c1)O[C@@]1(c3ccc(OCCCCCn4ccnc4)cc3)[C@H](c3ccccc3)C[C@@H](O)[C@@]21O (racemic) | 310 nM | 880 nM | 
 | > 1000 nM |  | COc1cc(OC)c2c(c1)O[C@@]1(c3ccc(OCCN4CCCCC4)cc3)[C@H](c3ccccc3)C[C@@H](O)[C@@]21O (racemic) | > 1000 nM | > 1000 nM | 
 | > 1000 nM |  | CCCCN(CCCC)Cc1cc([C@@]23Oc4cc(OC)cc(OC)c4[C@]2(O)[C@H](O)C[C@H]3c2ccccc2)ccc1O (racemic) | > 1000 nM | > 1000 nM | 
 | > 1000 nM |  | CCN(CC)Cc1cc([C@@]23Oc4cc(OC)cc(OC)c4[C@]2(O)[C@H](O)C[C@H]3c2ccccc2)ccc1OC (racemic) | 120 nM | 430 nM | 
 | > 1000 nM |  | COc1cc(OC)c2c(c1)O[C@@]1(c3ccc(OC)c(CN4CCCCC4)c3)[C@H](c3ccccc3)C[C@@H](O)[C@@]21O (racemic) | 570 nM | > 1000 nM | 
 | > 1000 nM |  | COc1cc(OC)c2c(c1)O[C@@]1(c3ccc(OCCN(C)C)cc3)[C@H](c3ccccc3)C[C@@H](O)[C@@]21O (racemic) | > 1000 nM | > 1000 nM | 
 | 210 nM |  | COc1cc(OC)c2c(c1)O[C@@]1(c3ccc(OCCCCCCCCN(C)C)cc3)[C@H](c3ccccc3)C[C@@H](O)[C@@]21O (racemic) | 220 nM | > 1000 nM | 
 | > 1000 nM |  | COc1cc(OC)c2c(c1)O[C@@]1(c3ccc(O)c(CN4CCOCC4)c3)[C@H](c3ccccc3)C[C@@H](O)[C@@]21O (racemic) | 490 nM | > 1000 nM | 
 | 550 nM |  | CCN(CC)CCCCOc1ccc([C@@]23Oc4cc(OC)cc(OC)c4[C@]2(O)[C@H](O)C[C@H]3c2ccccc2)cc1 (racemic) | > 1000 nM | > 1000 nM | 
8900 µg/mL (≈ 15.1 mM) |  | 110 nM | COc1cc(OC)c2c(c1)O[C@@]1(c3ccc(OCCCCCN4CCN(C)CC4)cc3)[C@H](c3ccccc3)C[C@@H](O)[C@@]21O (racemic; form 1) |  | 550 nM | 230 nM
